Columns and labels:
[1] = system: conscious ferret; test: Emesis and behavioral changes in conscious ferret; assay type: in vivo, ferrets (Mustela Pulorius Euro); settings: for Ataxia / Backward walking / Flattened posture / Lip licking / Mouth clawing / Panting / Retches / Salivation / Vomits: severity (number of animals that responded)
Method: The conscious ferret model has been used to investigate anti-inflammatory, emetic and behavioral effects of PDE4 inhibitors when administered by the oral (p.o.) route. From these experiments, a therapeutic index (TI) for each PDE4 inhibitor may be determined. The TI has been calculated by dividing the threshold dose for causing emetic episodes and behavioral changes by the anti-inflammatory dose (dose that causes 50% inhibition of the LPS-induced neutrophilia).
PDE4 inhibitors were administered orally (p.o.), at doses initially of […], but subsequently up to 30 mg/kg in order to establish whether the TI was 10 or higher, and/or at lower doses to establish the minimum dose to cause 50% inhibition of neutrophilia. Ferrets were fasted overnight but allowed free access to water. The animals were orally dosed with vehicle or PDE4 inhibitor using a 15 cm dosing needle that was passed down the back of the throat into the oesophagus. After dosing, the animals were returned to holding cages fitted with Perspex doors to allow observation, and given free access to water. After dosing, the animals were constantly observed and any emesis or behavioral changes were recorded. The animals were allowed access to food 60 to 90 minutes after p.o. dosing.
Thirty minutes after p.o. dosing with compound or vehicle control, the ferrets were placed into sealed Perspex containers and exposed to an aerosol of LPS (100 µg/ml) for 10 minutes. Aerosols of LPS were generated by a nebulizer (DeVilbiss, USA) and this was directed into the Perspex exposure chamber. Following a 10 minute exposure period, the animals were returned to the holding cages and allowed free access to water, and at a later stage, food. Observation continued for a period of at least 2.5 hours post p.o. dosing and emetic episodes and behavioral changes were recorded.
2. Emetic episodes - the number of vomits and retches were counted.
3. Behavioral changes - the following behavioral effects were noted: salivation, panting, mouth clawing, flattened posture, ataxia, arched back and backward walking. Any behavioral changes were semi-quantified by applying a severity rating (mild, moderate or severe).
4. The TI was calculated as the highest dose found to not cause emetic episodes divided by the lowest dose found to inhibit pulmonary neutrophilia by 50% or more.
Numbers in parentheses refer to the number of animals that responded. The numbers of animals in each group range from 4 to 22.
From these experiments, a therapeutic index (TI) was determined for each compound by dividing the threshold dose for inducing emetic episodes by the ED50 value for inhibiting the pulmonary neutrophilia. […] Table 4. Summary of the effective doses (ED50) for inhibition of LPS-induced pulmonary neutrophilia and induction of emesis and the therapeutic index derived from these values

[2] = system: bovine PDE1; test: PDE1 enzyme assay; assay type: biochemical
[3] = target: human PDE2 (Homo sapiens, UniProt O00408); test: PDE2 enzyme assay; assay type: biochemical
human PDE2, sequence (O00408 whole entry): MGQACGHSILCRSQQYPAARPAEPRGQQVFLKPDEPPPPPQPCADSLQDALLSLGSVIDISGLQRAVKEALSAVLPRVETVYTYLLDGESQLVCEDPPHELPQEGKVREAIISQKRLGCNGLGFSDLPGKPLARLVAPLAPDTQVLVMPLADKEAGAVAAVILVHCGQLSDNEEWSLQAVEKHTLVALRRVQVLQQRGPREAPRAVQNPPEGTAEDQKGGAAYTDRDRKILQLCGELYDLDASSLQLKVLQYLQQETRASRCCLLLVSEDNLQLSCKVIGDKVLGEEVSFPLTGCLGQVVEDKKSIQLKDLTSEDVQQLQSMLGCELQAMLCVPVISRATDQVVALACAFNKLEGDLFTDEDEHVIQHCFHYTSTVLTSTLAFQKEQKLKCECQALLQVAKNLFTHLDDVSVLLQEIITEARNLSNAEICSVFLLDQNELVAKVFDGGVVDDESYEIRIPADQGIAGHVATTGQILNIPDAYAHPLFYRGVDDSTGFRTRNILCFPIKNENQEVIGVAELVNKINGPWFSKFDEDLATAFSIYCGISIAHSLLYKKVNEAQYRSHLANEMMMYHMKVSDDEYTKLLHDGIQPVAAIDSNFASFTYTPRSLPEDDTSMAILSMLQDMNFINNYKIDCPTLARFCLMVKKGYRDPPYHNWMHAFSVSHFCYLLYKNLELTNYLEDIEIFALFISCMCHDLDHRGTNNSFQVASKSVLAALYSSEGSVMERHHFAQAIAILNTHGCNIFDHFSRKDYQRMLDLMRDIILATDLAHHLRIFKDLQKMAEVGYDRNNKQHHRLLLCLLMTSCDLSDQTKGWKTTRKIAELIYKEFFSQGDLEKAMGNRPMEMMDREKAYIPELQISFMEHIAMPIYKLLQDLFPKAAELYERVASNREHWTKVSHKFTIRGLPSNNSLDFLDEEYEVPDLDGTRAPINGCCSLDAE

[4] = system: PDE4 (from U937 cells); test: PDE4 (U937 cell-derived) enzyme assay; assay type: biochemical, human; settings: 1 µM cAMP
Method: PDE4 enzyme was purified from U937 human monocytic cells by gel filtration chromatography as previously described (Muller et al., 1998, Bioorg. & Med. Chem. Lett. 8:2669-2674). Phosphodiesterase reactions were carried out in 50 mM Tris HCl pH 7.5, 5 mM MgCl2, 1 µM cAMP, 10 nM [^3H]-cAMP for 30 min at 30°C, terminated by boiling, treated with 1 mg/ml snake venom, and separated using AG-1XS ion exchange resin (BioRad) as described (Muller et al., 1998, Bioorg. & Med. Chem. Lett. 8:2669-2674). Reactions consumed less than 15% of available substrate. Table 1. PDE Specificity

Question: How did the Ataxia ([1]; 0.1 mg/kg oral) turn out when CCOc1cc(C(CS(C)(=O)=O)N2C(=O)c3cccc(NC(C)=O)c3C2=O)ccc1OC (single isomer, unassigned; (+)) [Compound A, (+)-2-[1-(3-ethoxy-4-methoxyphenyl)-2-methylsulfonylethyl]-4-acetylaminoisoindoline-1,3-dione] was run?
Answer: None

Question: And the Backward walking ([1]; 0.1 mg/kg oral)?
Answer: Mild (3/5)

Question: What about the Flattened posture ([1]; 0.1 mg/kg oral) of the same compound?
Answer: Mild (2/5)

Question: And the Lip licking ([1]; 0.1 mg/kg oral)?
Answer: Mild (4/5)

Question: And the Mouth clawing ([1]; 0.1 mg/kg oral)?
Answer: None

Question: And the Panting ([1]; 0.1 mg/kg oral)?
Answer: None

Question: What about the Retches ([1]; 0.1 mg/kg oral) of the same compound?
Answer: None

Question: And the Salivation ([1]; 0.1 mg/kg oral)?
Answer: None

Question: And the Vomits ([1]; 0.1 mg/kg oral)?
Answer: None

Question: What about the Ataxia ([1]; 0.3 mg/kg oral) of the same compound?
Answer: None

Question: And the Backward walking ([1]; 0.3 mg/kg oral)?
Answer: Mild (4/6)

Question: What about the Flattened posture ([1]; 0.3 mg/kg oral) of the same compound?
Answer: Mild (2/6)

Question: What about the Lip licking ([1]; 0.3 mg/kg oral) of the same compound?
Answer: Mild (3/6)

Question: What about the Mouth clawing ([1]; 0.3 mg/kg oral) of the same compound?
Answer: None

Question: What about the Panting ([1]; 0.3 mg/kg oral) of the same compound?
Answer: None

Question: What about the Retches ([1]; 0.3 mg/kg oral) of the same compound?
Answer: None

Question: And the Salivation ([1]; 0.3 mg/kg oral)?
Answer: None

Question: What about the Vomits ([1]; 0.3 mg/kg oral) of the same compound?
Answer: None

Question: And the Ataxia ([1]; 1.0 mg/kg oral)?
Answer: None

Question: And the Backward walking ([1]; 1.0 mg/kg oral)?
Answer: Mild (4/6)

Question: And the Flattened posture ([1]; 1.0 mg/kg oral)?
Answer: Mild (2/6)

Question: And the Lip licking ([1]; 1.0 mg/kg oral)?
Answer: Mild (6/6)

Question: And the Mouth clawing ([1]; 1.0 mg/kg oral)?
Answer: None

Question: What about the Panting ([1]; 1.0 mg/kg oral) of the same compound?
Answer: None

Question: What about the Retches ([1]; 1.0 mg/kg oral) of the same compound?
Answer: None

Question: What about the Salivation ([1]; 1.0 mg/kg oral) of the same compound?
Answer: None

Question: What about the Vomits ([1]; 1.0 mg/kg oral) of the same compound?
Answer: None

Question: What about the Ataxia ([1]; 3.0 mg/kg oral) of the same compound?
Answer: None

Question: And the Backward walking ([1]; 3.0 mg/kg oral)?
Answer: Moderate (5/8)

Question: And the Flattened posture ([1]; 3.0 mg/kg oral)?
Answer: Marked (7/8)

Question: What about the Lip licking ([1]; 3.0 mg/kg oral) of the same compound?
Answer: Mild (2/8)

Question: What about the Mouth clawing ([1]; 3.0 mg/kg oral) of the same compound?
Answer: Mild (1/8)

Question: And the Panting ([1]; 3.0 mg/kg oral)?
Answer: None

Question: What about the Retches ([1]; 3.0 mg/kg oral) of the same compound?
Answer: None

Question: And the Salivation ([1]; 3.0 mg/kg oral)?
Answer: None

Question: And the Vomits ([1]; 3.0 mg/kg oral)?
Answer: None

Question: What about the Ataxia ([1]; 10 mg/kg oral) of the same compound?
Answer: None

Question: And the Backward walking ([1]; 10 mg/kg oral)?
Answer: Marked (6/6)

Question: What about the Flattened posture ([1]; 10 mg/kg oral) of the same compound?
Answer: Marked (6/6)

Question: And the Lip licking ([1]; 10 mg/kg oral)?
Answer: Moderate (5/6)

Question: What about the Mouth clawing ([1]; 10 mg/kg oral) of the same compound?
Answer: Mild (1/6)

Question: And the Panting ([1]; 10 mg/kg oral)?
Answer: None

Question: What about the Salivation ([1]; 10 mg/kg oral) of the same compound?
Answer: Mild (1/6)

Question: What about the Vomits ([1]; 10 mg/kg oral) of the same compound?
Answer: None

Question: What about the “behavioral changes (severity)” value ([1]; 10 mg/kg, p.o.) of the same compound?
Answer: mild or moderate

Question: What about the “emetic episodes (retching and vomiting)” value ([1]; 10 mg/kg, p.o., in 2/6 ferrets) of the same compound?
Answer: some retching but no frank emesis

Question: And the Ataxia ([1]; 30 mg/kg oral)?
Answer: Mild (3/4)

Question: What about the Backward walking ([1]; 30 mg/kg oral) of the same compound?
Answer: Mild (2/4)

Question: What about the Flattened posture ([1]; 30 mg/kg oral) of the same compound?
Answer: Marked (4/4)

Question: And the Lip licking ([1]; 30 mg/kg oral)?
Answer: Moderate (4/4)

Question: What about the Mouth clawing ([1]; 30 mg/kg oral) of the same compound?
Answer: Marked (4/4)

Question: And the Panting ([1]; 30 mg/kg oral)?
Answer: Mild (1/4)

Question: What about the Retches ([1]; 30 mg/kg oral) of the same compound?
Answer: Marked (3/4)

Question: What about the Salivation ([1]; 30 mg/kg oral) of the same compound?
Answer: Moderate (3/4)

Question: And the Vomits ([1]; 30 mg/kg oral)?
Answer: Moderate (3/4)

Question: What about the “behavioral changes (severity)” value ([1]; 30 mg/kg, p.o.) of the same compound?
Answer: pronounced behavioral changes

Question: And the “emetic episodes (retching and vomiting)” value ([1]; 30 mg/kg, p.o., in 3/4 animals)?
Answer: moderate to marked emesis

Question: And the “emetic episodes (retching and vomiting)” value ([1]; 0.1-3 mg/kg, p.o.)?
Answer: no emetic episodes

Question: And the “behavioral changes (severity)” value ([1]; 0.1-3 mg/kg, p.o., flattened posture, lip licking and backward walking)?
Answer: mild

Question: And the “Threshold emetic dose” value ([1]; conscious ferret, p.o.)?
Answer: 10 mg/kg

Question: What about the Therapeutic index ([1]; threshold emetic dose divided by ED50 for pulmonary neutrophilia) of the same compound?
Answer: 12

Question: What about the “PDE1 (% inhib at 10 µM)” value ([2]; 10 µM) of the same compound?
Answer: 23%

Question: What about the “PDE Specificity Ratio PDE4/PDE1” value ([2]; from above data) of the same compound?
Answer: >500 fold

Question: What about the “PDE Specificity Ratio PDE4/PDE2” value ([3]; from above data) of the same compound?
Answer: >10000 fold

Question: And the inhibition at 10 µM ([3]; read-out: PDE2(% inhib at 10 µM))?
Answer: 6%

Question: What about the IC50 [4] of the same compound?
Answer: 73.5 nM
